{
  "source": "patent US7175991B2",
  "about": "“Method of measuring binding site on plasma protein of plasma protein-binding drug and method of measuring plasma protein mutation” (Nihon Medi-Physics Co., Ltd., priority 2002, dated 2007)",
  "key": {"AGP Site A and B [1]": {"test_system": "AGP Site A and B", "settings": "for Change ratio (time) of ^3H-PPL free drug ratio / Free drug ratio (%) of ^3H-PPL: human, 400 μM, pH 7.4"}, "HSA Site II": {"target": "HSA Site II (Homo sapiens, UniProt P02768)", "sequence (P02768 25-609)": "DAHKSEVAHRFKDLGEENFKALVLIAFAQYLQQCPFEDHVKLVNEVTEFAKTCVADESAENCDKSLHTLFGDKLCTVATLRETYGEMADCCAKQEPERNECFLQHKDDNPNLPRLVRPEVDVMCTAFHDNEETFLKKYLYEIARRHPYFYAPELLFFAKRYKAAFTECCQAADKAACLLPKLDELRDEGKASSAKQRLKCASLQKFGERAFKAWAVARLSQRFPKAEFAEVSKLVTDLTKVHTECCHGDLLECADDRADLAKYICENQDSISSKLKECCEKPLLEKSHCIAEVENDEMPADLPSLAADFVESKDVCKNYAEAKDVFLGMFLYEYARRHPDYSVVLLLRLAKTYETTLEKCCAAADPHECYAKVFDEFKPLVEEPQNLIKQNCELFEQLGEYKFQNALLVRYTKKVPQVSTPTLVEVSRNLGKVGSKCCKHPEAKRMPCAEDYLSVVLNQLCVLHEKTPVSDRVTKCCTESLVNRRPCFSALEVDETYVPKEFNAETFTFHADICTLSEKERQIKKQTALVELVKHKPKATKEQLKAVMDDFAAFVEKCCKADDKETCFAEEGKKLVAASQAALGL", "settings": "for Change ratio (time) of ^14C-DZP free drug ratio / Free drug ratio (%) of ^14C-DZP: human, 400 μM, pH 7.4"}, "HSA Site I [2]": {"target": "T1, HSA Site I (Homo sapiens, UniProt P02768)", "T1 sequence (P02768 25-609)": "as above", "settings": "400 μM, pH 7.4"}, "HSA Site II and AGP [3]": {"test_system": "HSA Site II and AGP", "settings": "human, 400 μM, pH 7.4"}, "HSA Site II and AGP [4]": {"test_system": "HSA Site II and AGP", "test": "Four-nuclide simultaneous measurement, human serum 2 (AGP variant): displacement of ^125I-IMP", "excerpt": "(§1) In addition, the possibility of monitoring the protein binding displacement effect of a drug in the serum was examined."}, "AGP Site A and B [5]": {"test_system": "AGP Site A and B", "test": "Four-nuclide simultaneous measurement, human serum 2 (AGP variant): displacement of ^3H-PPL", "excerpt": "as §1"}, "HSA Site I [6]": {"target": "T1, HSA Site I", "settings": "human serum 1; added drug 400 μM"}, "HSA Site I [7]": {"target": "T1, HSA Site I", "test": "Four-nuclide simultaneous measurement, human serum 1: displacement of ^99mTcO4^-", "settings": "human serum 1, four nuclides"}, "HSA Site I [8]": {"target": "T1, HSA Site I", "test": "Four-nuclide simultaneous measurement, human serum 2 (AGP variant): displacement of ^99mTcO4^-", "excerpt": "as §1"}, "HSA Site I [9]": {"target": "T1, HSA Site I", "test": "Table 6, two-nuclide simultaneous measure, human pooled serum: column headed ^99mTcO4^-", "settings": "physiological saline instead of displacement drug"}, "plasma protein": {"test_system": "plasma protein", "settings": "used in the concentration of a diagnostic agent; cited from earlier work"}, "HSA Site II and AGP [10]": {"test_system": "HSA Site II and AGP", "test": "Table 6, two-nuclide simultaneous measure, human pooled serum: column headed ^125I-IMP", "settings": "physiological saline instead of displacement drug"}, "HSA Site II and AGP [11]": {"test_system": "HSA Site II and AGP", "test": "Four-nuclide simultaneous measurement, human serum 1: displacement of ^125I-IMP", "settings": "human serum 1, four nuclides"}, "[12]": {"settings": "physiological saline instead of displacement drug (Table 5)"}, "[13]": {"settings": "physiological saline instead of drug (Table 4)"}, "[14]": {"settings": "physiological saline control (Table 8)"}, "[15]": {"settings": "physiological saline instead of drug (Table 7)"}},
  "note": "Read-outs that look alike come from different tables or passages of the source.",
  "data": [
    {"compound": "CC(=O)N[C@@H](Cc1c[nH]c2ccccc12)C(=O)O", "note": "[NAT, N-acetyltryptophan]", "values": [
      {"measurement": "Effect on free drug with affinity to AGP, in words", "setting": "AGP Site A and B [1]", "result": "effect to reduce the concentration to some extent"},
      {"measurement": "Change ratio (time) of ^3H-PPL free drug ratio", "setting": "AGP Site A and B [1]", "result": 0.94, "unit": "time"},
      {"measurement": "Free drug ratio (%) of ^3H-PPL", "setting": "AGP Site A and B [1]", "result": 11.54, "unit": "%"},
      {"measurement": "Effect on free drug with affinity to site II of HSA, in words", "setting": "HSA Site II", "result": "effective displacement drug"},
      {"measurement": "Change ratio (time) of ^14C-DZP free drug ratio", "setting": "HSA Site II", "result": 1.21, "unit": "time"},
      {"measurement": "Free drug ratio (%) of ^14C-DZP", "setting": "HSA Site II", "result": 3.08, "unit": "%"},
      {"measurement": "Change ratio (time) of ^99mTcO4^- free drug ratio", "setting": "HSA Site I [2]", "result": 1.07, "unit": "time"},
      {"measurement": "Free drug ratio (%) of ^99mTcO4^-", "setting": "HSA Site I [2]", "result": 0.97, "unit": "%"},
      {"measurement": "Change ratio (time) of ^125I-IMP free drug ratio", "setting": "HSA Site II and AGP [3]", "result": 1.01, "unit": "time"},
      {"measurement": "Free drug ratio (%) of ^125I-IMP", "setting": "HSA Site II and AGP [3]", "result": 34.19, "unit": "%"}
    ]},
    {"compound": "CCCCC1C(=O)NC(=O)N(C2CCCCC2)C1=O", "note": "(stereo not shown) [BCL, bucolome]", "values": [
      {"measurement": "Effect on binding of ^125I-IMP, in words", "setting": "HSA Site II and AGP [4]", "result": "increased"},
      {"measurement": "Effect on binding of ^3H-PPL, in words", "setting": "AGP Site A and B [5]; human serum 2 (AGP variant)", "result": "increased"},
      {"measurement": "Displacement effect on ^14C-WRF, in words", "setting": "HSA Site I [6]", "result": "significant displacement effect"},
      {"measurement": "Displacement effect on drug with affinity to site I of HSA (^99mTcO4^-), in words", "setting": "HSA Site I [7]", "result": "significant displacement effect"},
      {"measurement": "Displacement effect on ^99mTcO4^-, in words", "setting": "HSA Site I [8]", "result": "significant displacement effect"}
    ]},
    {"compound": "CC(C)Cc1ccc(C(C)C(=O)O)cc1", "note": "(stereo not shown) [IPF, ibuprofen]", "values": [
      {"measurement": "Effect on binding of ^3H-PPL, in words", "setting": "AGP Site A and B [5]", "result": "increased"}
    ]},
    {"compound": "N[C@@H](Cc1c[nH]c2ccccc12)C(=O)O", "note": "[Trp, tryptophan]", "values": [
      {"measurement": "Change ratio (time) of ^3H-PPL free drug ratio", "setting": "AGP Site A and B [1]", "result": 1.01, "unit": "time"},
      {"measurement": "Change ratio (time) of ^14C-DZP free drug ratio", "setting": "HSA Site II", "result": 2.25, "unit": "time"},
      {"measurement": "Change ratio (time) of ^99mTcO4^- free drug ratio", "setting": "HSA Site I [2]", "result": 1.08, "unit": "time"},
      {"measurement": "Change ratio (time) of ^125I-IMP free drug ratio", "setting": "HSA Site II and AGP [3]", "result": 0.94, "unit": "time"}
    ]},
    {"compound": "[O]=[99Tc](=[O])(=[O])[O-]", "note": "[^99 mTcO4^-, Pertechnetium acid]", "values": [
      {"measurement": "Free drug ratio of control (%), ^99mTcO4^-", "setting": "HSA Site I [9]", "result": 0.90, "unit": "%"},
      {"measurement": "Free drug ratio of control (%), ^99mTcO4^-", "setting": "HSA Site I [7]; [12]", "result": 21.07, "unit": "%"},
      {"measurement": "Free drug ratio of control (%), ^99mTcO4^-", "setting": "HSA Site I [7]; [13]", "result": 21.07, "unit": "%"},
      {"measurement": "Free drug ratio of control (%), ^99mTcO4^-", "setting": "HSA Site I [8]; [14]", "result": 21.08, "unit": "%"},
      {"measurement": "Free drug ratio of control (%), ^99mTcO4^-", "setting": "HSA Site I [8]; [15]", "result": 21.08, "unit": "%"}
    ]},
    {"compound": "CC[C@H]1OC(=O)[C@H](C)[C@@H](O[C@H]2C[C@@](C)(OC)[C@@H](O)[C@H](C)O2)[C@H](C)[C@@H](O[C@@H]2O[C@H](C)C[C@H](N(C)C)[C@H]2O)[C@](C)(O)C[C@@H](C)C(=O)[C@H](C)[C@@H](O)[C@]1(C)O", "note": "[ETM, erythromycin]", "values": [
      {"measurement": "Effect on free drug with affinity to AGP, in words", "setting": "AGP Site A and B [1]", "result": "effective displacement drug"},
      {"measurement": "Change ratio (time) of ^3H-PPL free drug ratio", "setting": "AGP Site A and B [1]", "result": 1.93, "unit": "time"},
      {"measurement": "Free drug ratio (%) of ^3H-PPL", "setting": "AGP Site A and B [1]", "result": 23.79, "unit": "%"},
      {"measurement": "Change ratio (time) of ^14C-DZP free drug ratio", "setting": "HSA Site II", "result": 1.04, "unit": "time"},
      {"measurement": "Free drug ratio (%) of ^14C-DZP", "setting": "HSA Site II", "result": 2.67, "unit": "%"},
      {"measurement": "Change ratio (time) of ^99mTcO4^- free drug ratio", "setting": "HSA Site I [2]", "result": 0.99, "unit": "time"},
      {"measurement": "Free drug ratio (%) of ^99mTcO4^-", "setting": "HSA Site I [2]", "result": 0.88, "unit": "%"},
      {"measurement": "Change ratio (time) of ^125I-IMP free drug ratio", "setting": "HSA Site II and AGP [3]", "result": 1.61, "unit": "time"},
      {"measurement": "Free drug ratio (%) of ^125I-IMP", "setting": "HSA Site II and AGP [3]", "result": 54.78, "unit": "%"}
    ]},
    {"compound": "O=C([O-])CN=C([O-])CN=C([O-])CN=C([O-])C[S-].[O-2].[Tc+4]", "note": "[^99mTc-MAG3, 99m-technetium labeled mercaptoacetylglycylglycylglycine]", "values": [
      {"measurement": "Binding to plasma protein", "setting": "plasma protein", "result": "about 90%"}
    ]},
    {"compound": "CC(C)NC(C)Cc1ccc([125I])cc1", "note": "(stereo not shown) [^125I-IMP]", "values": [
      {"measurement": "Free drug ratio of control (%), ^125I-IMP", "setting": "HSA Site II and AGP [4]; [14]", "result": 27.23, "unit": "%"},
      {"measurement": "Free drug ratio of control (%), ^125I-IMP", "setting": "HSA Site II and AGP [4]; [15]", "result": 27.23, "unit": "%"},
      {"measurement": "Free drug ratio of control (%), ^125I-IMP", "setting": "HSA Site II and AGP [10]", "result": 33.98, "unit": "%"},
      {"measurement": "Free drug ratio of control (%), ^125I-IMP", "setting": "HSA Site II and AGP [11]; [12]", "result": 23.40, "unit": "%"},
      {"measurement": "Free drug ratio of control (%), ^125I-IMP", "setting": "HSA Site II and AGP [11]; [13]", "result": 23.40, "unit": "%"}
    ]}
  ]
}
